Source: US20250353847A1, “CRYSTALLINE FORMS OF AN AKRIC3 DEPENDENT KARS INHIBITOR” (Novartis AG, priority 2022, published 2025)

Columns and labels:
Type in all cases: physicochemical
[1] = Slurry experiments of Form A and Hydrate HA in media with different water activities
Method: Form A is stable at water activities of aw=0.7 and below, whereas the hydrate is stable at aw=0.9 and above. At 40° C. Form A is stable at water activities of aw=0.8 and below, whereas the hydrate is stable at aw>0.95.

[2] = Humidity controlled XRPD
[3] = Solid form transformation / decomposition upon heating; settings: heating
Method: DSC thermograms were recorded with a TA Discovery DSC instrument using heat flux compensation (TA Instruments, USA). The TA Discovery instrument was calibrated for temperature and enthalpy according to the manufacturer's instructions using certified reference substances like indium. About 2 mg of sample material was sealed in a standard pin-holed aluminum pan and heated in the DSC from 0° C. to 300° C., at a heating rate of 10° C./min. Dry nitrogen gas, at a flow rate of 50 ml/min was used to purge the DSC equipment during the measurement.
Thermogravimetric analysis was performed using a TA Discovery TGA instrument (TA Instruments, USA). About 2-10 mg of sample material was sealed in a standard aluminum pan with pierced lid and heated in the TGA from 30° C. to 250° C., at a heating rate of 10° C./min. Dry N2 gas, at a flow rate of 20 ml/min was used to purge the TGA equipment during the measurement.

O=C1CC2(CCN(C(=O)NCc3ccc(F)cc3)CC2)Nc2ccc(F)cc21 [Hydrate HA, 6′-fluoro-N-(4-fluorobenzyl)-4′-oxo-3′,4′-dihydro-1′H-spiro[piperidine-4,2′-quinoline]-1-carboxamide]
Water activity (aw) at which the form is stable ([1]; 25° C.): ≥ 0.9
Water activity (aw) at which the form is stable ([1]; 40° C.): > 0.95
Form change after exposure to low humidity ([2]; about 12 hours at 5% RH): XRPD pattern changed to Form E
Stability of form in humidity controlled XRPD ([2]; relative humidity decreased from 40% RH to 5% RH at 25° C.): remains stable
Temperature of transformation into Form E [3]: about 70 °C
